Results on one molecule are retold here after publication PMC8279857, “In Vitro and In Silico Evaluation for the Inhibitory Action of O. basilicum Methanol Extract on α-Glucosidase and α-Amylase” (Evidence-based Complementary and Alternative Medicine : eCAM, 2021).

The target in the experiment is T1, intestinal α-glucosidase.
T1 construct: called intestinal; pNPG assay after Kim et al; 5KZW (docking only) is not the assayed enzyme
As to the kind of experiment: p-nitrophenol release from pNPG, absorbance […] nm. In kind it is biochemical. The note with it: p-nitrophenyl α-D-glucopyranoside (250 μL of 20 mM), sodium phosphate pH 6.9, 37°C, 10 min preincubation.

On to `O=C(O)/C=C/c1ccc(O)c(O)c1` [caffeic acid], for which the IC50 was found to be 1050 ± 250 µM.

In general, IC50 refers to the concentration at which inhibition is half-maximal. High values mean lower potency, low ones higher potency.
